Measured values taken from the supplement of paper PMC3974653.
Structures can show the parent of a compound that is named as a salt.

Tested on: MTT (mouse pheochromocytoma)
Experiment: IC50 of cell viability (ATP content)
Conditions: (24 or 48 h)
How it was run: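 After overnight culture at 37°C, 5% CO2 in white 1536-well plates, MTT mouse pheochromocytoma cells were given 23 nl of library compound in DMSO by pintool across 8 concentrations, spanning final 0.5 nM to 46 µM. Following 24 or 48 hrs, CellTiter-Glo luminescence was read after 15 minutes and normalised against positive-control (100%) and DMSO (0%) wells. A four-parameter logistic model provided the IC50.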

SMILES	IC50 of cell viability
CC(C)C1NC(=O)[C@@H](NC(=O)C2=C3\N=C\4/C(=C(/C)C(=O)\C(=C4C(=O)N[C@H]5[C@@H](C)OC(=O)C(C(C)C)N(C)C(=O)CN(C)C(=O)[C@@H]6CCCN6C(=O)C(NC5=O)C(C)C)N)OC3=C(C)C=C2)[C@@H](C)OC(=O)C(C(C)C)N(C)C(=O)CN(C)C(=O)[C@@H]7CCCN7C1=O (some centres not stated)	> 46 µM
CCC(=O)OC1[C@@H](N2CCCCC2)C[C@H]2[C@@H]3CC[C@H]4C[C@H](OC(C)=O)[C@@H](N5CCCCC5)C[C@]4(C)[C@H]3CC[C@]12C (some centres not stated)	> 46 µM
CCC(=O)O[C@@](Cc1ccccc1)(c1ccccc1)[C@H](C)CN(C)C	> 46 µM
CCCCNc1ccc(C(=O)OCCN(C)C)cc1	> 46 µM
NC1CCN(c2cccc(Cl)n2)CC1	> 46 µM
O=C1CC2(CCCC2)CC(=O)N1CCNCC1COc2ccccc2O1 (configuration not stated)	> 46 µM
O=C(O)/C=C\C(=O)O.O=C(O)/C=C\C(=O)O.c1cc(CN2CCCCC2)cc(OCCCNc2nc3ccccc3s2)c1	> 46 µM
C=Cc1ccc(S(=O)(=O)[O-])cc1	> 46 µM
CNC[C@H](O)c1ccc(O)cc1 (racemic) [(+,-)-Synephrine]	> 46 µM
O=C1CCC(N2C(=O)c3ccccc3C2=O)C(=O)N1 (racemic) [(+-)-Thalidomide]	> 46 µM
COc1cc(CC(C)N)c(OC)cc1Br (racemic) [(±)-2,5-Dimethoxy-4-bromoamphetamine hydrobromide]	> 46 µM
CC(N)Cc1ccc2c(c1)OCO2 (racemic) [(±)-3,4-Methylenedioxyamphetamine hydrochloride]	> 46 µM
CCCCCC(O)/C=C/C=O (racemic) [(±)-4-Hydroxynon-2-enal]	> 46 µM
COCCc1ccc(OCC(O)CNC(C)C)cc1 (racemic) [(±)-Metoprolol (+)-tartrate salt]	> 46 µM
NCC(O)c1ccc(O)cc1 (racemic) [DL-OCTOPAMINE]	> 46 µM
O=C(O)[C@@H]1CCCN1 (racemic) [DL-Proline]	> 46 µM
Cl.NCCCC(N)(C(=O)O)C(F)F (racemic) [DL-alpha-Difluoromethylornithine hydrochloride]	> 46 µM
CCCCCCCCCCCCCCC[C@H](O)[C@H](N)CO (racemic) [DL-erythro-Dihydrosphingosine]	> 46 µM
COCCc1ccc(OC[C@H](O)CNC(C)C)cc1.COCCc1ccc(OC[C@H](O)CNC(C)C)cc1.O=C(O)[C@@H](O)[C@@H](O)C(=O)O (racemic) [Metoprolol-(+,-) (+)-tartrate salt]	> 46 µM
CC(=O)N[C@@H]1CCSC1=O (racemic) [N-Acetyl-DL-homocysteine Thiolactone]	> 46 µM
CC1=CCC(C(C)(C)O)CC1 (racemic) [Terpineol, mixture of isomers]	> 46 µM
CC\1=C(/CCN2CCC(CC2)C3=NOC4=C3C=CC(=C4)F)C(=O)[N@@]\5CCC[C@H](O)C5=N1 (racemic) [rac 9-Hydroxy Risperidone]	> 46 µM
COC(=O)C\1=C(C)\N\C(=C(/[C@@H]1C2=CC(=CC=C2)[N+]([O-])=O)C(=O)O[C@@H]3CCCN(C3)CC4=CC=CC=C4)C (racemic) [rac Benidipine Hydrochloride]	> 46 µM
O[C@@H](CNC[C@H](O)[C@H]1CCc2cc(F)ccc2O1)[C@@H]1CCc2cc(F)ccc2O1 (racemic) [rac Nebivolol Hydrochloride]	> 46 µM

SMILES	IC50 of cell viability
C[C@H]1C2Cc3ccc(O)cc3[C@]1(C)CCN2CC1CC1 (single isomer, unassigned; (+)) [(+)-Cyclazocine]	> 46 µM
CCc1cc(OC)c(CC(C)N)cc1OC (single isomer, unassigned; (-)) [(-)-2,5-Dimethoxy-4-ethylamphetamine]	> 46 µM
COc1cc(CC(C)N)c(OC)cc1C (single isomer, unassigned; (-)) [(-)-2,5-Dimethoxy-4-methylamphetamine]	> 46 µM
COc1ccc(OC)c(CC(C)N)c1 (single isomer, unassigned; (-)) [(-)-2,5-Dimethoxyamphetamine]	> 46 µM
COc1cc(CC(C)N)c(OC)cc1Br (single isomer, unassigned; (-)) [(-)-4-Bromo-2,5-dimethoxyamphetamine]	> 46 µM
CN1C2CCC1C(C(=O)O)C(OC(=O)c1ccccc1)C2 (single isomer, unassigned; (-)) [(-)-Benzoylecgonine]	> 46 µM
COC(=O)C1C(OC(=O)c2ccccc2)CC2CCC1N2C (single isomer, unassigned; (-)) [(-)-Cocaine]	> 46 µM
CCNC(C)Cc1cccc(C(F)(F)F)c1 (single isomer, unassigned; (-)) [(-)-Fenfluramine]	> 46 µM
CC12NC(Cc3ccccc31)c1ccccc12.O=C(O)/C=C/C(=O)O (single isomer, unassigned; (-)) [(-)-MK-801 hydrogen maleate]	> 46 µM
CC1[C@H]2Cc3ccc(O)cc3[C@]1(C)CCN2C (single isomer, unassigned; (-)) [(-)-Metazocine]	> 46 µM
COc1ccc2c3c1O[C@H]1[C@@H](O)C=C[C@H]4C(C2)NCCC341 (single isomer, unassigned; (-)) [(-)-NORCODEINE]	> 46 µM
CC(C)=CCN1CC[C@@]2(C)c3cc(O)ccc3C[C@@H]1C2C (single isomer, unassigned; (-)) [(-)-Pentazocine]	> 46 µM
CC1[C@H]2Cc3ccc(O)cc3[C@]1(C)CCN2CCc1ccccc1 (single isomer, unassigned; (-)) [(-)-Phenazocine]	> 46 µM
O=C(NC1N=C(c2ccccc2F)c2cccc3c2N(CC3)C1=O)c1cc2ccccc2[nH]1 (stereo in doubt)	> 46 µM
CCN(CC)CCO[C@H]1CC[C@@]2(C)C(=CC[C@@H]3C2CC[C@]2(C)C(=O)CCC32)C1 (stereo in doubt) [3b-(2-Diethylaminoethoxy)androst-5-en-17-one, HCl]	> 46 µM
COc1ccc2cc(C(C)C(=O)[O-])ccc2c1.[Na+] (stereo in doubt) [(R) -Naproxen sodium salt]	> 46 µM
CNC1(c2ccccc2Cl)CCCCC1=O (stereo in doubt) [(R)-(+)-Ketamine]	> 46 µM
CNC1(c2ccccc2Cl)CCCCC1=O (stereo in doubt) [(S)-(-)-Ketamine]	> 46 µM
CC(=O)NC(CC(C)C)C(=O)O (stereo in doubt) [ACETYL-L-LEUCINE]	> 46 µM
O=C(O)C(O)[C@@H](O)[C@H](O)C(=O)CO (stereo in doubt) [D-XYLO-5-HEXULOSONIC ACID, CALCIUM SALT]	> 46 µM
NC(COP(=O)(O)O)C(=O)O (stereo in doubt) [O-PHOSPHO-L-SERINE]	> 46 µM
CC(C)=CCCC(C)=CCCC(C)=CCC/C=C(\C)CC/C=C(\C)CCC=C(C)C (stereo in doubt) [Squalene]	> 46 µM
Clc1ccccc1Cl [1,2-Dichlorobenzene]	> 46 µM
